The values that follow come from article PMC12215270 (Nature Communications, 2025).

Test [1] addresses T1, TgCet (RNA triphosphatase) (Toxoplasma gondii, UniProt S8F0G9).
T1 sequence (S8F0G9 1-920): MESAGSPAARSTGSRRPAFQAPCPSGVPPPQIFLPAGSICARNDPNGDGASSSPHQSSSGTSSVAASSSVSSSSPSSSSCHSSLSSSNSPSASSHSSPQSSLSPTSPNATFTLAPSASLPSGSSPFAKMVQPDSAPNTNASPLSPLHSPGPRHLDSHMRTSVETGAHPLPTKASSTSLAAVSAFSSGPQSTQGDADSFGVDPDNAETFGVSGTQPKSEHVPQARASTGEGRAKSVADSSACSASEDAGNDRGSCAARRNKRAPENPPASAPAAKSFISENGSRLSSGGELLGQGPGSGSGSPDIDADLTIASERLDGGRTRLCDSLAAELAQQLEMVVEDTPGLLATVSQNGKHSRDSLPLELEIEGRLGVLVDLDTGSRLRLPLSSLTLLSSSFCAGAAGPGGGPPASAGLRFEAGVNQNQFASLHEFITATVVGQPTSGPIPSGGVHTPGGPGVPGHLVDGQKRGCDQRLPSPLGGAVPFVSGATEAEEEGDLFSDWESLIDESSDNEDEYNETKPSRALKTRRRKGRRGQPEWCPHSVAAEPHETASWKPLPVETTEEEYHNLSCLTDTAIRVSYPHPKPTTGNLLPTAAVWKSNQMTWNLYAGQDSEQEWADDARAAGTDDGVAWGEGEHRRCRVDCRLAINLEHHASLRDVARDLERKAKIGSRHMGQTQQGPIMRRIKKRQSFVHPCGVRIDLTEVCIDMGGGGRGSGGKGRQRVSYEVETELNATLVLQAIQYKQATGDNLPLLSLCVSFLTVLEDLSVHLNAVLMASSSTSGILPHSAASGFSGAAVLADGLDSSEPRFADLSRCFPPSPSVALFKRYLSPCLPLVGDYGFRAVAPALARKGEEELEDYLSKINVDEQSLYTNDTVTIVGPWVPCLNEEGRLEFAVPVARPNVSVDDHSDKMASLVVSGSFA
Nature of the test: ATPase assay. The test is classed as biochemical.

The target in test [2] is T2, TgCmt (guanine-N7 methyltransferase) (Toxoplasma gondii, UniProt S8F527).
T2 sequence (S8F527 716-1283): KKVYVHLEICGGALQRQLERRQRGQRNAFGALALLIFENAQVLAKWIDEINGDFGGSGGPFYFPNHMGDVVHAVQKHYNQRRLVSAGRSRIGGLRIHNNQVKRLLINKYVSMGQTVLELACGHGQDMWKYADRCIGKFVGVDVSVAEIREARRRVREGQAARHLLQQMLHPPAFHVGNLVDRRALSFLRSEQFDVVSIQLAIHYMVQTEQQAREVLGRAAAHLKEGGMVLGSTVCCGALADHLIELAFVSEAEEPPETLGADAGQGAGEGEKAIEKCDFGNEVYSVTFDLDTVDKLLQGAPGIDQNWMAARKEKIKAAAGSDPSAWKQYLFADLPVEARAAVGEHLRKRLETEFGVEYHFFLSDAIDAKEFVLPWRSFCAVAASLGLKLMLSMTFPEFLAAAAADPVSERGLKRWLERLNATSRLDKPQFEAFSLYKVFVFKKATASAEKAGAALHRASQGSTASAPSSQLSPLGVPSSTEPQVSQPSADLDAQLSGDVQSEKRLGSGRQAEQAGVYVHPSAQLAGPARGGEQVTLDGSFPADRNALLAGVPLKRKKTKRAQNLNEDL
As to the kind of experiment: in vitro RNA cap methylation, anti-m7G immuno-dot blot. The class given is biochemical.

As a reminder, the IC50 is the concentration that gives 50% inhibition. `O=c1c(O)c(-c2cc(O)c(O)c(O)c2)oc2cc(O)cc(O)c12` [Myricetin]: half-maximal inhibition in test [1] (IC50) was put at 400 nM.

`Nc1ncnc2c1ncn2[C@@H]1O[C@H](C[C@@H](N)CC[C@H](N)C(=O)O)[C@@H](O)[C@H]1O` [sinefungin]: the “in vitro RNA cap methylation, anti-m7G immuno-dot blot” value in test [2] was “sinefungin inhibits m^7GpppN32 synthesis in a concentration-dependent manner”.
